Measurements published in patent US20230151434A1, “REAWAKENING OF DORMANT TUMOR CELLS BY MODIFIED LIPIDS DERIVED FROM STRESS ACTIVATED NEUTROPHILS” (The Wistar Institute of Anatomy and Biology, priority 2020, published 2023).
Where two headings read alike, the source gives them in different places.

Tests used:
PMN [1] = experiment: S100A8/A9 release by PMN measured by ELISA; assay type: cell-based, mouse
Method: PMN or PMN-MDSC were isolated from spleen of tumor-free mice or LLC tumor-bearing mice, respectively. A total of 5×10^5 LLC cells were injected into the right flank of mice, and spleens were harvested when tumors reached 200 mm^2. Spleens were mechanically dissociated. Red blood cells were lysed with ACK buffer cells. Splenocytes were stained with mouse biotin-conjugated Ly6G antibody (Miltenyi Biotec) followed by biotin microbeads. Ly6G+ cells were purified by magnetic separation with MACS column for magnetic cell isolation, according to the manufacturer's instructions (Miltenyi Biotec).
One hundred microliters of mouse peripheral blood was collected from facial vein. NE was measured by a mouse NE ELISA Kit (Novus Biologicals). S100A8/A9 was measured by Mouse S100A8/S100A9 Heterodimer DuoSet ELISA (R&D Systems). S100A8/A9 concentrations in human serum samples were determined by using a double-sandwich ELISA system as previously described (64), which is different from commercial ELISA kits. Human NE was measured using an ELISA kit (Abnova).

KPr^p53A cells = experiment: In vitro co-culture of dormant tumor cells with PMN (count of GFP+ cells); assay type: cell-based, mouse; conditions: for reactivation/proliferation of KPr^p53A cells cultured with PMN plus supplement: supplement added with PMN, LPS 0.5 to 2 μg/ml
Method: (§1) The KPr cell line (16) was maintained in RPMI 1640 medium (Corning) and 10% FBS (Gibco). Treatment of KPr cells with 250 nM 4-hydroxytamoxifen (4-OHT, Sigma-Aldrich) induced p53 expression. p53-induced cells (KPr^p53) were stained with CellTrace dye for 20 min at 37° C. according to the manufacturer's instructions (Life Technologies) and seeded at 8500 cells/cm^2 in culture in a T175 tissue culture-treated flask (Gibco). After 7 days, cells were detached and sorted based on the CellTrace dye intensity as proliferating (KPr^p53P, with lower CellTrace) and arrested cells (KPr^p53A, with higher-intensity CellTrace; see FIG. 1A for representative image). LL2 cells were seeded at 1000 cells/cm2 and treated for 3 days with 2.5 μM cisplatin (Selleckchem). After that, cells were stained with CellTrace and sorted as described above. OVCAR3 cell senescence was induced by treating 5×10^4 cells/cm2 with 0.5 μM cisplatin for 72 hours. After that time, cells were stained with CellTrace and sorted. A549 senescence was induced by 72-hour treatment with 4 μM cisplatin and cells were sorted after staining with CellTrace. Time points for sorting were chosen as the best to observe separation between arrested and proliferating cells. Cells were sorted on Astrios (Beckman Coulter) or Melody (Becton Dickinson) fluorescence-activated cell sorters.
(§2) Arrested tumor cells were plated at 100 cells/cm^2 in a 48-well tissue culture-treated plate (Costar) for coculture experiments. After 24 hours, PMN-MDSC or PMN were added at indicated ratios. Cocultures were maintained for 48 hours in RPMI 1640+10% FBS in the presence of mouse recombinant GM-CSF (10 ng/ml; Rocky Hill) to ensure neutrophil viability. All control conditions were in the presence of media with GM-CSF. All indicated supplements (NE, S100A8/A9, BGJ398, ICI 118-551, IL-2, MPO inhibitor, LPS, lipids, PMA, and thapsigargin 1 μM) were added to culture at the same time as PMN and maintained for 48 hours. After that, media were removed and replaced by fresh media without GM-CSF. After 1 week, GFP^+ cells in wells were counted via an inverted microscope. When lipid extracts were used, lipids were added to dormant cells in culture at 1 to 0.05 or 0.01 nmol as indicated in each experiment.

[2] = system: A549^cisA and OVCAR3^cisA cells; experiment: In vitro co-culture of chemotherapy-arrested human tumor cells with human PMN; assay type: cell-based; conditions: A549^cisA, OVCAR3^cisA
Method: as §1, §2

[3] = system: LL2^cisA and AT-3^DoxA cells; experiment: In vitro co-culture of chemotherapy-arrested mouse tumor cells with PMN; assay type: cell-based; conditions: LL2^cisA, AT-3^DoxA
Method: as §1, §2

PMN [4] = experiment: PMN viability (proportion of live PMN); assay type: cell-based, mouse
Method: FIG. 2A-FIG. 2K show neutrophil-mediated reactivation of dormant cells is regulated by stress-induced S100A8/A9. (FIG. 2A) Fold increase in the number of KPr^p53A cells cultured in the presence of PMN and S100A8/A9 or indicated cytokines relative to KPr^p53A cells cultured with PMN. Three independent experiments with 16 replicates were performed. Mean±SEM of one experiment is shown. (FIG. 2B) Fold increase in the number of KPr^p53A cells cultured in the presence of PMN and LPS relative to KPr^p53A cells cultured with PMN or alone. Means±SEM of three independent experiments with 16 replicates each are shown. (FIG. 2C) Fold increase in the number of KPr^p53A cells cultured in the presence of S100A8/A9 alone, PMN and S100A8/A9, or PMN-MDSC relative to KPr^p53A cultured alone. Means±SEM of 10 independent experiments with 16 replicates each are shown. (FIG. 2D) S100A8/A9 protein produced by PMN after treatment with indicated hormones or LPS was measured by ELISA. PMN-MDSC were isolated from spleens of Lewis lung carcinoma tumor-bearing mice. Means±SEM and results of each independent experiment with three replicates are shown. (FIG. 2E) S100A8/A9 protein secreted in vitro from PMN and PMN treated with NE with or without ICI-118; […] as measured by ELISA. Means±SEM and results of independent experiment with three replicates are shown. (FIG. 2F) Flow cytometry staining of ADRB2 receptor (dark gray) on PMN isolated from mouse spleen. Isotype control, light gray. Representative histogram of three experiments is shown. (FIG. 2G) Fold increase in the number of KPr^p53A cells cultured with PMN alone, NE alone, PMN and NE together, and PMN and NE plus ICI-118; 553 relative to KPr^p53A cells cultured alone (Ctrl). Ten independent experiments with 16 replicates for each experiment were performed. Means±SEM in a representative experiment are shown. (FIG. 2H) Number of KPr^p53A cells cultured in the presence of PMN from S100a9KO mice alone or together with NE relative to KPr^p53A cells cultured alone (ctrl). Means±SEM are reported for 16 replicates. (FIG. 2I) Percentage of live PMN after overnight incubation with NE, S100A8/A9, or LPS. Each dot represents the average of three experimental replicates of one single experiment. Means±SEM are shown for each group. (FIG. 2J) Fold increase in number of LL2^CisA cells cultured with PMN alone or together with S100A8/A9 or NE relative to LL2^CisA cultured alone (Ctrl). Means±SEM of three independent experiments with 16 replicates each are shown. […] In all panels, P values were calculated using ANOVA test with correction for multiple comparisons.
FIG. 11A-FIG. 11G show the mechanism of dormant tumor cell reactivation. […] P values were calculated by ANOVA test with correction for multiple comparisons. […]

[5] = system: LL2, A549 and OVCAR3 cells; experiment: Cisplatin-induced tumor cell dormancy; assay type: cell-based, mouse; human; conditions: LL2 2.5 μM, A549 4 μM, OVCAR3 0.5 μM, 72 hours
Method: as §1, with “sorters. […]” for “sorters.”

[6] = PMN treated with stress hormones or LPS

CNC[C@H](O)c1ccc(O)c(O)c1 [epinephrine]
S100A8/A9 release by PMN (PMN [1]): caused rapid release of S100A8/A9 proteins

PE (18:0p/20:4) [Untreated PE]
proliferation of KPr^p53A cells cultured with lipids (KPr^p53A cells; lipids added to dormant cells, no PMN): did not activate proliferation of KPr^p53A cells

NCCc1c[nH]c2ccc(O)cc12 [serotonin]
S100A8/A9 release by PMN (PMN [1]; [6]): caused rapid release of S100A8/A9 proteins

TNF a
reactivation/proliferation of KPr^p53A cells cultured with PMN plus supplement (KPr^p53A cells): did not induce their ability to reactivate dormant KPr^p53A cells

NC[C@H](O)c1ccc(O)c(O)c1 [NE, norepinephrine]
reactivation/proliferation of KPr^p53A cells, supplement alone (KPr^p53A cells; absence of PMN): did not affect the proliferation of KPr^p53A cells | reactivation/proliferation of KPr^p53A cells cultured with PMN plus supplement (KPr^p53A cells): caused proliferation of tumor cells | reactivation of arrested human tumor cells cultured with human PMN plus supplement [2]: reactivated dormant mouse and human tumor cells | proliferation of arrested mouse tumor cells cultured with mouse PMN plus supplement [3]: reactivated dormant mouse and human tumor cells | PMN viability (PMN [4]): did not affect PMN viability | S100A8/A9 release by PMN (PMN [1]; [6]): caused rapid release of S100A8/A9 proteins

C/C=C(/C)C(=O)O[C@H]1C(C)=C2[C@H]([C@@H]1OC(=O)CCCCCCC)[C@@](C)(OC(C)=O)C[C@H](OC(=O)CCC)[C@@]1(O)[C@H]2OC(=O)[C@@]1(C)O [thapsigargin]
reactivation/proliferation of KPr^p53A cells cultured with PMN plus supplement (KPr^p53A cells): did not induce their ability to reactivate dormant KPr^p53A cells

Lipopolysaccharide [LPS]
reactivation/proliferation of KPr^p53A cells cultured with PMN plus supplement (KPr^p53A cells): did not affect the ability of PMN to reactivate KPr^p53A cells | PMN viability (PMN [4]; overnight incubation): markedly reduced it

IL-6: proinflammatory cytokine
reactivation/proliferation of KPr^p53A cells cultured with PMN plus supplement (KPr^p53A cells): did not induce their ability to reactivate dormant KPr^p53A cells

CCCCCCCCCCCCCC(=O)O[C@@H]1[C@@H](C)[C@@]2(O)[C@@H](C=C(CO)C[C@]3(O)C(=O)C(C)=C[C@@H]23)[C@@H]2C(C)(C)[C@]12OC(C)=O [PMA, phorbol 12-myristate 13-acetate]
reactivation/proliferation of KPr^p53A cells cultured with PMN plus supplement (KPr^p53A cells): did not induce their ability to reactivate dormant KPr^p53A cells

C[C@]12CCC(=O)C=C1CC[C@@H]1[C@@H]2[C@@H](O)C[C@@]2(C)[C@H]1CC[C@]2(O)C(=O)CO [cortisol]
S100A8/A9 release by PMN (PMN [1]; [6]): caused rapid release of S100A8/A9 proteins

N.N.[Cl][Pt][Cl] [cisplatin]
induction of proliferation arrest / senescence-like phenotype in tumor cells [5]: caused a senescence-like phenotype in tumor cells in vitro | induction of proliferation arrest / senescence-like phenotype in tumor cells ([5]; listed as Cisplatin): generated proliferation-arrested cells

B1: IL-10: proinflammatory cytokine as printed (protein, UniProt P22301 19-178, looked up)
Interleukin-10: SPGQGTQSENSCTHFPGNLPNMLRDLRDAFSRVKTFFQMKDQLDNLLLKESLLEDFKGYLGCQALSEMIQFYLEEVMPQAENQDPDIKAHVNSLGENLKTLRLRLRRCHRFLPCENKSKAVEQVKNAFNKLQEKGIYKAMSEFDIFINYIEAYMTMKIRN
reactivation/proliferation of KPr^p53A cells cultured with PMN plus supplement (KPr^p53A cells): did not induce their ability to reactivate dormant KPr^p53A cells

B2: human S100A8/A9: human recombinant S100A8/A9 (protein, UniProt P05109 1-93; P06702 1-114, looked up)
Protein S100-A8: MLTELEKALNSIIDVYHKYSLIKGNFHAVYRDDLKKLLETECPQYIRKKGADVWFKELDINTDGAVNFQEFLILVIKMGVAAHKKSHEESHKE
Protein S100-A9: MTCKMSQLERNIETIINTFHQYSVKLGHPDTLNQGEFKELVRKDLQNFLKKENKNEKVIEHIMEDLDTNADKQLSFEEFIMLMARLTWASHEKMHEGDEGPGHHHKPGLGEGTP
reactivation of arrested human tumor cells cultured with human PMN plus supplement [2]: reactivation of A549^cisA and OVCAR3^cisA cells
